According to ChEMBL document CHEMBL3396988, “Structure-based design of inhibitors of coagulation factor XIa with novel P1 moieties” (Bioorg Med Chem Lett, 2015):

What was measured:
Coagulation factor XI = Coagulation factor XI (Homo sapiens, UniProt P03951); assay: Inhibition of human coagulation factor 11a at 25 degC
Trypsin = Trypsin (Homo sapiens, UniProt P07477+P07478+P35030); assay: Inhibition of human trypsin at 25 degC; type: protein assay
[1] = Permeability of the compound at pH 7.4 by PAMPA method; type: ADME; conditions: read-out: permeability
[2] = Clearance in dog at 0.5 mg/kg, po or 0.4 mg/kg, iv administered in cassette format; type: ADME, organism-based, Canis lupus familiaris; conditions: in vivo
[3] = Volume of distribution at steady state in dog at 0.5 mg/kg, po or 0.4 mg/kg, iv administered in cassette format; type: ADME, organism-based, Canis lupus familiaris; conditions: in vivo, read-out: Vdss
[4] = Half life in dog at 0.5 mg/kg, po or 0.4 mg/kg, iv administered in cassette format; type: ADME, organism-based, Canis lupus familiaris; conditions: in vivo
[5] = Oral bioavailability in dog at 0.5 mg/kg administered in cassette format; type: ADME, organism-based, Canis lupus familiaris; conditions: in vivo
Plasma = assay: Anticoagulant activity in human plasma assessed as compound level causing 1.5 times increase in activated partial […] time; type: functional
[6] = Half life in human liver microsomes; type: ADME
Coagulation factor VII = molecular target: T1, Coagulation factor VII (Homo sapiens, UniProt P08709); assay: Inhibition of coagulation factor 7a (unknown origin)
T1 sequence (P08709 whole entry): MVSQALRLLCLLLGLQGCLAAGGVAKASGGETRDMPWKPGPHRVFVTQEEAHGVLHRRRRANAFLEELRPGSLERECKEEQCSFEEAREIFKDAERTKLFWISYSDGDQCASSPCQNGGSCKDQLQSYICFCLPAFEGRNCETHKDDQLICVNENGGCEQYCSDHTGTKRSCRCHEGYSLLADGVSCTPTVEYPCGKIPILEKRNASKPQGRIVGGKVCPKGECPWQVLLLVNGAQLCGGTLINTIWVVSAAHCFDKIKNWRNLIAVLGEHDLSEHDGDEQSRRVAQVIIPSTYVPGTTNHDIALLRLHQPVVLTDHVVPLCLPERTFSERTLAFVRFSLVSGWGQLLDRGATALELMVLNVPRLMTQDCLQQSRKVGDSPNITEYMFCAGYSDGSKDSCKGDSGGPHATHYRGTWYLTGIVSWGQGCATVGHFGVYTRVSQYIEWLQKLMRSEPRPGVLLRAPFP

Coagulation factor IX = Coagulation factor IX (Homo sapiens, UniProt P00740); assay: Inhibition of coagulation factor 9a (unknown origin)
Coagulation factor X = Coagulation factor X (Homo sapiens, UniProt P00742); assay: Inhibition of coagulation factor 10a (unknown origin)
Prothrombin = Prothrombin (Homo sapiens, UniProt P00734); assay: Inhibition of thrombin (unknown origin)
Plasma kallikrein = Plasma kallikrein (Homo sapiens, UniProt P03952); assay: Inhibition of plasma kallikrein (unknown origin)
Kallikrein-1 = Kallikrein-1 (Homo sapiens, UniProt P06870); assay: Inhibition of tissue kallikrein (unknown origin)
[7] = Inhibition of chymotrypsin (unknown origin); parameters: species or system Homo sapiens
Plasminogen = Plasminogen (Homo sapiens, UniProt P00747); assay: Inhibition of plasmin (unknown origin)
[8] = molecular target: Tissue-type plasminogen activator (Homo sapiens, UniProt P00750); assay: Inhibition of TPA (unknown origin)
Tissue-type plasminogen activator, sequence (P00750 whole entry): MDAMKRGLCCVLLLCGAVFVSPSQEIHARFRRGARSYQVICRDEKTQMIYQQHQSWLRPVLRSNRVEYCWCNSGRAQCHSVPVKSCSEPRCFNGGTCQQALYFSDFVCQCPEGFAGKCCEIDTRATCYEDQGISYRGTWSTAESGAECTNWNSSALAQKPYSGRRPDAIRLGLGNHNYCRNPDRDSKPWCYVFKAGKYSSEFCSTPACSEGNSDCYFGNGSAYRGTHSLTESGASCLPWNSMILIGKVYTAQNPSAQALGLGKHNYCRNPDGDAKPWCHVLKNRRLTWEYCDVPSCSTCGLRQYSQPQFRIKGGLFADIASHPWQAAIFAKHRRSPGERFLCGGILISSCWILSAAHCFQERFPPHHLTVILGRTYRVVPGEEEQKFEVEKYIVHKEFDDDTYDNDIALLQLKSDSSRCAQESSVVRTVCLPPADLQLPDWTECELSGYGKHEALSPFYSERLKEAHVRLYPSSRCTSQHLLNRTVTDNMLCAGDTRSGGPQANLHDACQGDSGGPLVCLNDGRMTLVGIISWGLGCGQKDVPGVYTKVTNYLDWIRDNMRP

Coagulation factor XI, sequence (P03951 19-387 limits assumed): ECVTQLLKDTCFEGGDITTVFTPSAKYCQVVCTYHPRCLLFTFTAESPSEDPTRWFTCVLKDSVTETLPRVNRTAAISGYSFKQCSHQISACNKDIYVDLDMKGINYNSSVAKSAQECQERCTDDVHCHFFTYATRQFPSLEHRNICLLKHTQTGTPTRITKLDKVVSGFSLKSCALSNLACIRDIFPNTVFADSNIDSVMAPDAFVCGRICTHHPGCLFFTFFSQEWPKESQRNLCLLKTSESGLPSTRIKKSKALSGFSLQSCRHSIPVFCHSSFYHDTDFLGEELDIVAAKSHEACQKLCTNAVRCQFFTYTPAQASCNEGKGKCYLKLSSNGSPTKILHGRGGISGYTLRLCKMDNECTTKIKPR
Coagulation factor XI, sequence (P03951 388-625 limits assumed): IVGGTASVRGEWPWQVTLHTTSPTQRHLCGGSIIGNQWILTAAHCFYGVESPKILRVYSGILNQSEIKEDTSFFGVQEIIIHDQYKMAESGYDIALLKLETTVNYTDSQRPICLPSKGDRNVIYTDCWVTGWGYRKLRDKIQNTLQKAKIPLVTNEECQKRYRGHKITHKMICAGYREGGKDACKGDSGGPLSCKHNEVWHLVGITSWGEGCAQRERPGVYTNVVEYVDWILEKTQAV
Plasminogen, sequence (P00747 97-580 limits assumed): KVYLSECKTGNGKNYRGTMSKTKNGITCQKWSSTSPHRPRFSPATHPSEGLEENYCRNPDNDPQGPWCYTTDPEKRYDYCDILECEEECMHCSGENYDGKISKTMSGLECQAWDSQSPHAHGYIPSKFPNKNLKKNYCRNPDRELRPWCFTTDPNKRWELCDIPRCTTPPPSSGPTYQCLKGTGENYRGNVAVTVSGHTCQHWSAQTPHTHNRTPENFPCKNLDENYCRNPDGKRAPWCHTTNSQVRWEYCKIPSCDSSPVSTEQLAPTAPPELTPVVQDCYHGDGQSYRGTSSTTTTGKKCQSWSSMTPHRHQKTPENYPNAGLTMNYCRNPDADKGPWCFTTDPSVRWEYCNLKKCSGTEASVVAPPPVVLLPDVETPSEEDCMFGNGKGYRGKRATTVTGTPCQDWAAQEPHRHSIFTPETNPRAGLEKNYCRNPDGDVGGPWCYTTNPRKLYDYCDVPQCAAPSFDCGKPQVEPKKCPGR
Plasminogen, sequence (P00747 581-810 limits assumed): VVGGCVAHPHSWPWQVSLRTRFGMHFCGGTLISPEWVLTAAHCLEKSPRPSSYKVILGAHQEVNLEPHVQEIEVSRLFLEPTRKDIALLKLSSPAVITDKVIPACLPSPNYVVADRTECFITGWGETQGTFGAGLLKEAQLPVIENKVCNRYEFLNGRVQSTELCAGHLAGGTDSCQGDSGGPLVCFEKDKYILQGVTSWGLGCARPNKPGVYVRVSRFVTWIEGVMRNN
Kallikrein-1, sequence (P06870 whole entry): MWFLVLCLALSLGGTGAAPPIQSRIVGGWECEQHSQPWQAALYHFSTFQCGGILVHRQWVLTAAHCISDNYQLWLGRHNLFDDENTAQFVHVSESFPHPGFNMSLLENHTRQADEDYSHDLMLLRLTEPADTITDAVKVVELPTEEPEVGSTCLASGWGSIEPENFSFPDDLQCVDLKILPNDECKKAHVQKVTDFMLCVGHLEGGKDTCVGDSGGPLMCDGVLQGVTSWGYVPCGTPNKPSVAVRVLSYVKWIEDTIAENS
Coagulation factor IX, sequence (P00740 47-191 limits assumed): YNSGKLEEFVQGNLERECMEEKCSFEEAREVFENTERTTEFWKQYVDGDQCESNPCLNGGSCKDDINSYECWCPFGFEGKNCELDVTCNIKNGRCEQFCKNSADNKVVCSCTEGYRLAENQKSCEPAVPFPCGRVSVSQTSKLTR
Coagulation factor IX, sequence (P00740 227-461 limits assumed): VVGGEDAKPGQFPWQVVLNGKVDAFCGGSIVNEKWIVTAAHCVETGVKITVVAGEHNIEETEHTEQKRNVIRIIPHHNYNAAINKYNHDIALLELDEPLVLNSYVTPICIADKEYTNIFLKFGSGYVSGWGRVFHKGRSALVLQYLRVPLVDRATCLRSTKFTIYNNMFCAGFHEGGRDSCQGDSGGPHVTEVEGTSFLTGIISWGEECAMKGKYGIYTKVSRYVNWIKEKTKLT
Coagulation factor X, sequence (P00742 41-179 limits assumed): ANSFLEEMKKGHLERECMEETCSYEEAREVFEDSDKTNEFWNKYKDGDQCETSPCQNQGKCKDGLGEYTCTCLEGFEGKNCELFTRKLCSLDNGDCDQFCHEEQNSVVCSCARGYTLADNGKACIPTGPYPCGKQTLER
Coagulation factor X, sequence (P00742 235-488 limits assumed): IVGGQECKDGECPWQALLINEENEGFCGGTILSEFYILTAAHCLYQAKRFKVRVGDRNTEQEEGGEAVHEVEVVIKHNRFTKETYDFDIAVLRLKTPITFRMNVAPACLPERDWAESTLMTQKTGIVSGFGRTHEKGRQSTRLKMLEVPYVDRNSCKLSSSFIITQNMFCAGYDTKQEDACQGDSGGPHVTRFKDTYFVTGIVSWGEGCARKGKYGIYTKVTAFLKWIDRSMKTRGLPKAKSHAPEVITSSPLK
Plasma kallikrein, sequence (P03952 20-390 limits assumed): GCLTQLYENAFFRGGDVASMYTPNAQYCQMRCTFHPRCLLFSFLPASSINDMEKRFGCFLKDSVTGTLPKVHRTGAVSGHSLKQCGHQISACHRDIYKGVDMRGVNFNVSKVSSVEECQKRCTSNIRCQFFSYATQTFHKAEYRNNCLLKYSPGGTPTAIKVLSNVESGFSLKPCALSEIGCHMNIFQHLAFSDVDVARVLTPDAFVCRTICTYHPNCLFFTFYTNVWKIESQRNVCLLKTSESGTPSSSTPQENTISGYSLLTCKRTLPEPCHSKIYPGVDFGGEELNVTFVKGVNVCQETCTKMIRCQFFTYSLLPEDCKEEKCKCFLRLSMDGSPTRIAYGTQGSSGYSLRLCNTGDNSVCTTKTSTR
Plasma kallikrein, sequence (P03952 391-638 limits assumed): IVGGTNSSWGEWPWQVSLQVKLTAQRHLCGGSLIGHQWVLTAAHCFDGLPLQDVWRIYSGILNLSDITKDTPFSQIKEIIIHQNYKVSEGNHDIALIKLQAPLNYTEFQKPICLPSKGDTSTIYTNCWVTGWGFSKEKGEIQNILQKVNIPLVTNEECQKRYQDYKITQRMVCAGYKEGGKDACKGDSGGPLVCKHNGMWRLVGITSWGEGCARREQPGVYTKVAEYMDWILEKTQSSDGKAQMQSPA

Compound	Ki (Coagulation factor XI) [nM]	Ki (Trypsin) [µM]	clearance [2] [mL/min/kg]	Vd [3] [L/kg]	half-life [4] [min]	other results
NCC12CCC(C(=O)N[C@@H](Cc3ccccc3)c3nc(-c4ccc5c(N)n[nH]c5c4)c(Cl)[nH]3)(CC1)CC2	1.49	1.04	–	–	–	–
NCc1ccc(C(=O)N[C@@H](Cc2ccccc2)c2nc(-c3ccc4c(N)n[nH]c4c3)c(Cl)[nH]2)cc1	1.16	0.059	–	–	–	–
NCc1ccc(C(=O)N[C@@H](Cc2ccccc2)c2nc(-c3ccc4c(N)n[nH]c4c3)c(Cl)[nH]2)c(F)c1	1.03	0.058	–	–	–	–
Nc1nccc2cc(C(=O)N[C@@H](Cc3ccccc3)c3nc(-c4ccc5c(N)n[nH]c5c4)c(Cl)[nH]3)ccc12	19	0.38	49.5	1	8.4	Papp [1]: 3.8 ×10⁻⁶ cm/s; bioavailability [5]: < 2%
Nc1n[nH]c2cc(C(=O)N[C@@H](Cc3ccccc3)c3nc(-c4ccc5c(N)n[nH]c5c4)c(Cl)[nH]3)ccc12	58	1.4	–	–	–	–
Nc1n[nH]c2cc(-c3nc([C@H](Cc4ccccc4)NC(=O)c4ccc5c(N)noc5c4)[nH]c3Cl)ccc12	125	> 5	–	–	–	–
Nc1n[nH]c2cc(-c3nc([C@H](Cc4ccccc4)NC(=O)[C@H]4CC[C@H](C(N)=O)CC4)[nH]c3Cl)ccc12	2900	> 5	–	–	–	–
C[C@H]1CC[C@H](C(=O)N[C@@H](Cc2ccccc2)c2nc(-c3ccc4c(N)n[nH]c4c3)c(Cl)[nH]2)CC1	68	> 6	15.4	0.9	90	Papp [1]: 0.46 ×10⁻⁶ cm/s; bioavailability [5]: < 1%
NC(=O)c1ccc(C(=O)N[C@@H](Cc2ccccc2)c2nc(-c3ccc4c(N)n[nH]c4c3)c(Cl)[nH]2)cc1	310	> 5	12.5	1.5	84	bioavailability [5]: 26%
Cc1ccc(C(=O)N[C@@H](Cc2ccccc2)c2nc(-c3ccc4c(N)n[nH]c4c3)c(Cl)[nH]2)cc1	390	> 5	–	–	–	–
Cc1ccc(C(=O)N[C@@H](Cc2ccccc2)c2nc(-c3ccc4c(N)n[nH]c4c3)c(Cl)[nH]2)c(F)c1	200	> 5	9	1.9	108	Papp [1]: 54.7 ×10⁻⁶ cm/s; bioavailability [5]: 30%
COc1ccc(C(=O)N[C@@H](Cc2ccccc2)c2nc(-c3ccc4c(N)n[nH]c4c3)c(Cl)[nH]2)c(F)c1	280	> 6	–	–	–	–
COc1cc(F)c(C(=O)N[C@@H](Cc2ccccc2)c2nc(-c3ccc4c(N)n[nH]c4c3)c(Cl)[nH]2)c(F)c1	65	> 6	15.2	1.3	72	Papp [1]: 23.4 ×10⁻⁶ cm/s; bioavailability [5]: 49%
Nc1n[nH]c2cc(-c3nc([C@H](Cc4ccccc4)NC(=O)c4cc(Cl)ccc4F)[nH]c3Cl)ccc12	530	> 5	–	–	–	–
Nc1n[nH]c2cc(-c3nc([C@H](Cc4ccccc4)NC(=O)NCc4cccc(Cl)c4)[nH]c3Cl)ccc12	54	–	–	–	–	–
Nc1n[nH]c2cc(-c3nc([C@H](Cc4ccccc4)NC(=O)NCc4cc(Cl)ccc4F)[nH]c3Cl)ccc12	31	–	–	–	–	–

Compound	Ki (Coagulation factor XI) [nM]	Ki (Trypsin) [µM]	clearance [2] [mL/min/kg]	Vd [3] [L/kg]	half-life [4] [min]	other results
Cc1ccc(Cl)cc1CNC(=O)N[C@@H](Cc1ccccc1)c1nc(-c2ccc3c(N)n[nH]c3c2)c(Cl)[nH]1	53	–	–	–	–	–
Nc1n[nH]c2cc(-c3nc([C@H](Cc4ccccc4)NC(=O)NCc4cc(Cl)ccc4C(F)(F)F)[nH]c3Cl)ccc12	240	–	–	–	–	–
COc1ccc(Cl)cc1CNC(=O)N[C@@H](Cc1ccccc1)c1nc(-c2ccc3c(N)n[nH]c3c2)c(Cl)[nH]1	75	–	–	–	–	–
Nc1n[nH]c2cc(-c3nc([C@H](Cc4ccccc4)NC(=O)NCc4cccc(Cl)c4F)[nH]c3Cl)ccc12	57	–	–	–	–	–
Nc1n[nH]c2cc(-c3nc([C@H](Cc4ccccc4)NC(=O)NCc4c(F)ccc(Cl)c4F)[nH]c3Cl)ccc12	23	–	–	–	–	–
NCc1ccc(Cl)cc1CNC(=O)N[C@@H](Cc1ccccc1)c1nc(-c2ccc3c(N)n[nH]c3c2)c(Cl)[nH]1	5.8	–	–	–	–	Activity (Plasma): 3.9 µM
Nc1n[nH]c2cc(-c3nc([C@H](Cc4ccccc4)NC(=O)NCc4cc(Cl)ccc4-n4cnnn4)[nH]c3Cl)ccc12	1.5	–	31.2	1.4	126	bioavailability [5]: 0%; Activity (Plasma): 1.8 µM; half-life [6]: < 1 min
Nc1n[nH]c2cc(-c3nc([C@H](Cc4ccccc4)NC(=O)NCc4cc(Cl)ccc4-n4cccn4)[nH]c3Cl)ccc12	450	–	–	–	–	half-life [6]: < 1 min
Nc1n[nH]c2cc(-c3nc([C@H](Cc4ccccc4)NC(=O)NCc4cc(Cl)ccc4-n4cncn4)[nH]c3Cl)ccc12	46	–	–	–	–	Activity (Plasma): 34 µM; half-life [6]: < 1 min
COC(=O)Nc1ccc(-c2nc([C@H](Cc3ccccc3)NC(=O)NCc3cc(Cl)ccc3-n3cnnn3)[nH]c2Cl)cc1	3.4	–	34.5	2.8	168	Activity (Plasma): 5.6 µM; half-life [6]: < 1 min
COC(=O)Nc1ccc(-c2nc([C@H](Cc3ccccc3)NC(=O)CCc3cc(Cl)ccc3-n3cnnn3)[nH]c2Cl)cc1	1.9	–	38.3	4.4	156	Activity (Plasma): 5.2 µM
COC(=O)Nc1ccc(-c2nc([C@H](Cc3ccccc3)NC(=O)/C=C/c3cc(Cl)ccc3-n3cnnn3)[nH]c2Cl)cc1	2.7	–	9	1.6	186	bioavailability [5]: 3%; Activity (Plasma): 5.3 µM; half-life [6]: 33 min
COC(=O)Nc1ccc(-c2c[nH]c([C@H](Cc3ccccc3)NC(=O)/C=C/c3cc(Cl)ccc3-n3cnnn3)n2)cc1	6.7	> 6.2	–	3.4	144	Ki (Coagulation factor VII): > 13 µM; Ki (Coagulation factor IX): > 60 µM; Ki (Coagulation factor X): 1500 nM; Ki (Prothrombin): > 15 µM; Ki (Plasma kallikrein): 240 nM; Ki (Kallikrein-1): > 30 µM; Ki [7]: 1300 nM; Ki (Plasminogen): > 41 µM; Ki [8]: 17 µM; bioavailability [5]: 10.4%; Activity (Plasma): 8.6 µM
Nc1nccc2c1CCC(C(=O)N[C@@H](Cc1ccccc1)c1nc(-c3ccc4c(N)n[nH]c4c3)c(Cl)[nH]1)C2 (single isomer, unassigned; diastereomer A)	2.6	2.8	34.8	2.8	138	Papp [1]: 0.15 ×10⁻⁶ cm/s; bioavailability [5]: < 2%
Nc1nccc2c1CCC(C(=O)N[C@@H](Cc1ccccc1)c1nc(-c3ccc4c(N)n[nH]c4c3)c(Cl)[nH]1)C2 (single isomer, unassigned; diastereomer B)	2.5	0.36	–	–	–	–
Nc1nccc2c1CCC(C(=O)N[C@@H](Cc1ccccc1)c1nc(-c3ccc4c(N)n[nH]c4c3)c(Cl)[nH]1)C2 (stereo in doubt; 6)	2.15	1.43	–	–	–	–
